Measured values: PMC9866191, “Novel 9-Benzylaminoacridine Derivatives as Dual Inhibitors of Phosphodiesterase 5 and Topoisomerase II for the Treatment of Colon Cancer” (Molecules, 2023)

What was measured:
IGROV1 = assay: NCI-60 one-dose screen; format: cell-based; details: Homo sapiens, IGROV-1; IGROV1, Ovarian Cancer panel; single dose 10^−5 M; read-out: Growth inhibition %
CCD-966SK = assay: MTT cell proliferation assay, CCD-966SK; details: CCD966SK skin fibroblast; 10 µM; 72 h MTT
CCRF-CEM = assay: NCI-60 one-dose screen; format: cell-based; details: Homo sapiens, Leukemia panel, single dose 10^−5 M, read-out: Growth inhibition %
[1] = system: panel of 60 human tumor cell lines; assay: NCI 60-cell line one-dose screen (mean); format: cell-based; details: mean of the 60 cell lines, single dose 10^−5 M, read-out: Mean % Growth Inhibition
Description: (§1) The newly synthesized compounds were screened for their in vitro anticancer activity at the Developmental Therapeutic Program (DTP) of the National Cancer Institute (NCI). The screening involved a panel of 60 human tumor cell lines consisting of 9 tissue types to screen for potential anti-cancer agents. The primary screening of submitted compounds was performed by testing a single dose (10^−5 M) in the full NCI-60 panel. The detailed % inhibition by the tested compounds against the 60 cell lines is shown in Tables S1–S3 in the Supporting Information.

PDE5A = molecular target: T1, PDE5A (Homo sapiens, UniProt O76074); assay: Phosphodiesterase 5 HTRF cGMP assay; format: biochemical; details: for IC50: means ± S.D. (n = 4), read-out: PDE5 IC50; for inhibition at 10 µM: read-out: PDE5 % Inhibition at 10 μM
T1 construct: purchased BPS Bioscience, San Diego, CA, USA
Description: All the synthesized acridine derivatives were tested for their in vitro ability to inhibit PDE5A at a screening dose of 10 µM.
The enzyme activities of phosphodiesterase 5 (PDE5) were measured using an HTRF cGMP assay kit (Cisbio, Codolet, France). […] Afterward, the HTRF reagent (cGMP-d2 and anti-cGMP-cryptate) was added for 1 h at 25 °C, and PDE activity was assayed on an HTRF reader (Tecan Infinite F200 Pro).

LOX IMVI = assay: NCI-60 one-dose screen; format: cell-based; details: Homo sapiens, Melanoma panel, single dose 10^−5 M, read-out: Growth inhibition %
MOLT-4 = assay: NCI-60 one-dose screen; format: cell-based; details: Homo sapiens; MOLT-4, Leukemia panel; single dose 10^−5 M; read-out: Growth inhibition %
Description: as §1

NCI-H322M = assay: NCI-60 one-dose screen; format: cell-based; details: Homo sapiens, Non-small cell lung panel, single dose 10^−5 M, read-out: Growth inhibition %
Description: as §1

OVCAR-4 = assay: NCI-60 one-dose screen; format: cell-based; details: Homo sapiens; OVCAR-4, Ovarian Cancer panel; single dose 10^−5 M; read-out: Growth inhibition %
Description: as §1

NCI-H460 = assay: NCI-60 one-dose screen; format: cell-based; details: Homo sapiens; NCI-H460, Non-small cell lung panel; single dose 10^−5 M; read-out: Growth inhibition %
Description: as §1

SK-MEL-2 = assay: NCI-60 one-dose screen; format: cell-based; details: Homo sapiens; SK-MEL-2, Melanoma panel; single dose 10^−5 M; read-out: Growth inhibition %
Description: as §1

MDA-MB-231/ATCC = assay: NCI-60 one-dose screen; format: cell-based; details: Homo sapiens, Breast Cancer panel, single dose 10^−5 M, read-out: Growth inhibition %
Description: as §1

HS 578T = assay: NCI-60 one-dose screen; format: cell-based; details: Homo sapiens, Breast Cancer panel, single dose 10^−5 M, read-out: Growth inhibition %
Description: as §1

NCI-H23 = assay: NCI-60 one-dose screen; format: cell-based; details: Homo sapiens; NCI-H23, Non-small cell lung panel; single dose 10^−5 M; read-out: Growth inhibition %
Description: as §1

OVCAR-8 = assay: NCI-60 one-dose screen; format: cell-based; details: Homo sapiens; OVCAR-8, Ovarian Cancer panel; single dose 10^−5 M; read-out: Growth inhibition %
Description: as §1

T-47D = assay: NCI-60 one-dose screen; format: cell-based; details: Homo sapiens, T47D, Breast Cancer panel, single dose 10^−5 M, read-out: Growth inhibition %
Description: as §1

OVCAR-3 = assay: NCI-60 one-dose screen; format: cell-based; details: Homo sapiens; OVCAR-3, Ovarian Cancer panel; single dose 10^−5 M; read-out: Growth inhibition %
Description: as §1

SNB-75 = assay: NCI-60 one-dose screen; format: cell-based; details: Homo sapiens; SNB-75, CNS Cancer panel; single dose 10^−5 M; read-out: Growth inhibition %
Description: as §1

TK-10 = assay: NCI-60 one-dose screen; format: cell-based; details: Homo sapiens; TK-10, Renal Cancer panel; single dose 10^−5 M; read-out: Growth inhibition %
Description: as §1

M14 = assay: NCI-60 one-dose screen; format: cell-based; details: Homo sapiens; M14, Melanoma panel; single dose 10^−5 M; read-out: Growth inhibition %
Description: as §1

EKVX = assay: NCI-60 one-dose screen; format: cell-based; details: Homo sapiens, Non-small cell lung panel, single dose 10^−5 M, read-out: Growth inhibition %
Description: as §1

HL-60(TB) = assay: NCI-60 one-dose screen; format: cell-based; details: Homo sapiens, Leukemia panel, single dose 10^−5 M, read-out: Growth inhibition %
Description: as §1

OVCAR-5 = assay: NCI-60 one-dose screen; format: cell-based; details: Homo sapiens; OVCAR-5, Ovarian Cancer panel; single dose 10^−5 M; read-out: Growth inhibition %
Description: as §1

MDA-MB-435 = assay: NCI-60 one-dose screen; format: cell-based; details: Homo sapiens; MDA-MB-435, Melanoma panel; single dose 10^−5 M; read-out: Growth inhibition %
Description: as §1

HT29 = assay: NCI-60 one-dose screen; format: cell-based; details: Homo sapiens, HT-29; HT29, Colon Cancer panel; single dose 10^−5 M; read-out: Growth inhibition %
Description: as §1

HCT-15 = assay: NCI-60 one-dose screen; format: cell-based; details: Homo sapiens; HCT-15, Colon Cancer panel; single dose 10^−5 M; read-out: Growth inhibition %
Description: as §1

MALME-3M = assay: NCI-60 one-dose screen; format: cell-based; details: Homo sapiens, Melanoma panel, single dose 10^−5 M, read-out: Growth inhibition %
Description: as §1

SF-268 = assay: NCI-60 one-dose screen; format: cell-based; details: Homo sapiens; SF-268, CNS Cancer panel; single dose 10^−5 M; read-out: Growth inhibition %
HCT-116 = assay: MTT cell proliferation assay, HCT-116; details: for % Inhibition at 10 µM: 72 h MTT, means ± SD; for IC50: read-out: IC50 μM, 72 h MTT, means ± SD, three experiments

Compound	inhibition at 10 µM (IGROV1) [%]	% Inhibition at 10 µM (CCD-966SK) [%]	inhibition at 10 µM (CCRF-CEM) [%]	inhibition at 10 µM [1] [%]	IC50 (PDE5A) [µM]	inhibition at 10 µM (PDE5A) [%]	inhibition at 10 µM (LOX IMVI) [%]	inhibition at 10 µM (MOLT-4) [%]	inhibition at 10 µM (NCI-H322M) [%]	inhibition at 10 µM (OVCAR-4) [%]	inhibition at 10 µM (NCI-H460) [%]	inhibition at 10 µM (SK-MEL-2) [%]	inhibition at 10 µM (MDA-MB-231/ATCC) [%]	inhibition at 10 µM (HS 578T) [%]	inhibition at 10 µM (NCI-H23) [%]	inhibition at 10 µM (OVCAR-8) [%]	inhibition at 10 µM (T-47D) [%]	inhibition at 10 µM (OVCAR-3) [%]	inhibition at 10 µM (SNB-75) [%]	inhibition at 10 µM (TK-10) [%]	other results
c1coc(CNc2c3ccccc3nc3ccccc23)c1 [Compound 14, Acridin-9-yl-furan-2-ylmethyl-amine]	38.1	33.89 ± 0.85	42.9	38.4	7.43 ± 2.69	56.5 ± 7.38	62.9	72.8	35	43.1	43.5	-1.22	39.5	16	36.4	52.5	30.7	3.11	18.5	11.6	inhibition at 10 µM (M14): 20.3%; inhibition at 10 µM (EKVX): 38%; inhibition at 10 µM (HL-60(TB)): 6.96%; inhibition at 10 µM (OVCAR-5): 23.6%; inhibition at 10 µM (MDA-MB-435): 12.4%; inhibition at 10 µM (HT29): 64.9%; inhibition at 10 µM (HCT-15): 55.8%; inhibition at 10 µM (MALME-3M): 9.63%; inhibition at 10 µM (SF-268): 14.3%; % Inhibition at 10 µM (HCT-116): 58.83 ± 1.72%; IC50 (HCT-116): 8.41 ± 0.19 µM
Clc1cccc(CNc2c3ccccc3nc3ccccc23)c1 [Compound 12, Acridin-9-yl-(3-chlorobenzyl)-amine]	83.5	45.43 ± 0.42	81.9	73	6.29 ± 1.18	62.2 ± 4.94	98.2	98.9	68.7	81.2	85.8	22.7	70.6	46.3	68	68.9	59.1	42.3	31.3	47.9	inhibition at 10 µM (M14): 64.5%; inhibition at 10 µM (EKVX): 72.8%; inhibition at 10 µM (HL-60(TB)): 91%; inhibition at 10 µM (OVCAR-5): 67.6%; inhibition at 10 µM (MDA-MB-435): 53.4%; inhibition at 10 µM (HT29): 91.4%; inhibition at 10 µM (HCT-15): 86%; inhibition at 10 µM (MALME-3M): 55%; inhibition at 10 µM (SF-268): 39.4%; % Inhibition at 10 µM (HCT-116): 63.40 ± 7.54%; IC50 (HCT-116): 4.84 ± 0.05 µM
COc1ccc(CNc2c3ccccc3nc3ccccc23)cc1F [Compound 19, Acridin-9-yl-(3-fluoro-4-methoxybenzyl)-amine]	84.2	41.77 ± 0.99	70.4	76.2	3.39 ± 1.03	79.2 ± 8.48	98.8	91.1	68.3	73.8	93.7	54.9	70.8	54.5	73	70.6	65	47.8	57.5	63.9	inhibition at 10 µM (M14): 80.1%; inhibition at 10 µM (EKVX): 73.9%; inhibition at 10 µM (HL-60(TB)): 87.1%; inhibition at 10 µM (OVCAR-5): 63.1%; inhibition at 10 µM (MDA-MB-435): 92.4%; inhibition at 10 µM (HT29): 87.8%; inhibition at 10 µM (HCT-15): 89%; inhibition at 10 µM (MALME-3M): 76.4%; inhibition at 10 µM (SF-268): 50.9%
COc1ccc2nc3ccccc3c(NCc3ccc(C)cc3)c2c1 [Compound 26, (2-Methoxyacridin-9-yl)-(4-methylbenzyl)-amine]	82.8	46.76 ± 3.21	92.9	79.9	0.83 ± 0.12	88.1 ± 4.28	106	99.7	69.7	81.5	90	30	66.4	57.3	71.7	71.3	69.4	53.1	53.4	53	inhibition at 10 µM (M14): 71.3%; inhibition at 10 µM (EKVX): 64.8%; inhibition at 10 µM (HL-60(TB)): 100%; inhibition at 10 µM (OVCAR-5): 66%; inhibition at 10 µM (MDA-MB-435): 57.8%; inhibition at 10 µM (HT29): 98.8%; inhibition at 10 µM (HCT-15): 88.6%; inhibition at 10 µM (MALME-3M): 78%; inhibition at 10 µM (SF-268): 51.6%; % Inhibition at 10 µM (HCT-116): 38.11 ± 1.35%
COc1ccc(CNc2c3ccccc3nc3ccc(OC)cc23)cc1 [Compound 27, (2-Methoxyacridin-9-yl)-(4-methoxybenzyl)-amine]	88.8	19.04 ± 3.94	80.6	87.9	1.87 ± 1.03	88.8 ± 4.84	175	100	76.5	81.6	93.5	59.1	76.4	74.1	78.6	74.6	65.8	59.6	72.6	66.4	inhibition at 10 µM (M14): 80.5%; inhibition at 10 µM (EKVX): 75.8%; inhibition at 10 µM (HL-60(TB)): 121%; inhibition at 10 µM (OVCAR-5): 69.3%; inhibition at 10 µM (MDA-MB-435): 81%; inhibition at 10 µM (HT29): 103%; inhibition at 10 µM (HCT-15): 94.7%; inhibition at 10 µM (MALME-3M): 92.9%; inhibition at 10 µM (SF-268): 59.8%
